Experiments:
Format in all cases: cell-based, human
[1] = tested on: CC promoter activity in E006AA cells; assay: Cytochrome c (CYCS) promoter reporter (luciferase) assay; conditions: CYCS-Luc transfected cells, 24 hrs
Protocol: Cytochrome c (CYCS) promoter reporter assay: CYCS promoter reporter clone and empty pLightSwitch vector were purchased from SwitchGear Genomics, Menlo Park, Calif. (Cat #S721763). The reporter construct was prepared by cloning −1000 bp of CYCS promoter from the transcription initiation site. Plasmids were transformed in DH5a E. Coli strain and were isolated using a Zymo Plasmid MidiPrep kit (Zymo research, cat #D4200). The Nrf1 binding site in the p-CYCS-SwichGear-Luc construct was deleted using a QuickChange II XL site-directed mutagenesis kit (Agilent Technologies, Wilmington, Del. Cat #200521). LNCaP and E006AA cells were seeded in 96 well plates and transfected with either pLightSwitch empty vector or CYCS promoter reporter clones using a lipofectamine 3000 transfection kit (ThermoFisher Scientific, Waltham, Mass.). Cells were harvested after 48 hrs. Luciferase activity assay was performed using LightSwitch Assay Reagent (SwitchGear Genomics, Menlo Park, Calif. Cat #LS010).

[2] = tested on: Nrf1 binding with CC promoter in E006AA cells; assay: Chromatin immunoprecipitation (ChIP) assay, Nrf1 binding with CC promoter
Protocol: Chromatin immunoprecipitation (ChIP) assay: The association of Nrf1 transcription factor with CYCS promoter within the LNCaP and E006AA cells was detected using a chromatin immunoprecipitation (ChIP) Assay Kit (Millipore, Billerica, Mass.; Cat #17-295) according to the manufacturer's instructions. In brief, 1 million cells were fixed in formaldehyde for 15 min and chromatin was sheared using Bioruptor sonication device for 10 min in ice with 30 sec on/off cycle (Diagenode, Denville, N.J.). Ten μ1 sonicated samples (of 2 ml total volume) were separated as input. Chromatin was immunoprecipitated with 1.0 μg of Nrf1 or normal rabbit IgG (Santa Cruz Biotechnology) antibody at 4° C. overnight. Each sample (5 μl) was used as a template for PCR amplification and 20 μl of the 50 μl PCR product was loaded onto agarose gels. CYCS oligonucleotide sequence encompasses the CYCS promoter segment that includes the Nrf1 binding sites for PCR primers viz 5′-[…]-3′ [SEQ ID:7] and 5′-[…]-3′ [SEQ ID:8]. PCR mixtures were amplified for 1 cycle at 94° C. for 5 min followed by 35 cycles at 94° C. for 30 s, 55° C. for 30 s and 72° C. for 30 s, and then subjected to final elongation at 72° C. for 10 min. PCR products were run on 2% agarose gel and analyzed using ethidium bromide staining.

[3] = tested on: p-Drp1^S616 in E006AA cells; assay: Immunoblot analysis of p-Drp1^S616 and Drp1; conditions: AA PCa cells; c-Myc I 75 μM, NF-κB I 50 μM, AKT Act 5 μM
Protocol: (§1) Immunoblotting: Immunoblotting was performed as described previously. Protein lysates were prepared using a lysis in NP-40 buffer (50 mM Tris-HCl pH 7.4, 150 mM NaCl, 1 mM EDTA, 1 mM EGTA, 1% NP-40) supplemented with protease and phosphatase inhibitor cocktail. Protein content was quantified using a micro BCA protein estimation kit (Thermo Scientific, Waltham, Mass.; Cat #23235). Protein samples were resolved on 4-20% Criterion gels, transferred on nitrocellulose membranes (BioRad, Hercules, Calif.) and subjected to immunoblotting. Membranes were blocked in 5% fat free dry milk (Blotto, Santa Cruz, Dallas, Tex.; Cat #sc-2324) prepared in PBS-T (Tween-20) and incubated overnight in primary antibodies (1:1000 dilution) at 4° C. with continuous shaking. After washing with PBS-T, membranes were incubated in HRP conjugated anti-mouse or anti-rabbit secondary antibody at room temperature for 1 hr. After washing with PBS-T, proteins were detected using Clarity chemiluminescent reagent (BioRad, Hercules, Calif.; Cat #1705061) and X-Ray films (ASI, Fort Lauderdale, Fla.; Cat #XR1570). Membranes were stripped using stripping buffer and probed with HRP conjugated beta-actin antibody to ensure equal loading of proteins.

[4] = tested on: Nrf1 nuclear translocation in E006AA cells; assay: Immunoblot analysis of Nrf1 in cytosolic and nuclear fractions
Protocol: as §1, with “Subcellular fractionation for the preparation of cytosolic and nuclear fractions: Cells were seeded on 10 cm cell culture plates for treatment. Cells were harvested via gently scraping. Cells were collected using centrifugation and washed twice with ice cold PBS. Cells were resuspended in cytosolic buffer (10 mM HEPES, pH 7.4; 10 mM KCl; 0.1 mM EDTA; 0.1 mM EGTA) supplemented with freshly added 1× protease inhibitor cocktail and 1 mM DTT. Cells were incubated in cytosolic buffer for 15 min in ice and 10% NP40 was added (12.4 μl 10% NP40 per 200 μl volume of cytosolic buffer) followed by vigorous vortexing for 45 sec. Cell homogenates were centrifuged at 14000 rpm for 2 min. The supernatant was collected in new tubes and stored as the cytosolic fraction. The nuclear pellet was washed 3 times with cytosolic buffer and lysed in nuclear lysis buffer (10 mM HEPES, 500 mM NaCl, 1 mM EDTA, 1 mM EGTA, 1% NP40) to prepare nuclear extract. Immunoblotting:” for “Immunoblotting:”

[5] = tested on: E006AA cells; assay: Immunoblot analysis of CC, cleaved PARP and cleaved caspase-3 in whole cell lysates; conditions: for CC expression: combined treatment with DOC (10 nM, 24 hrs), c-Myc I 75 μM, NF-κB I 50 μM, AKT Act 5 μM
Protocol: as §1

[6] = combined treatment with DOC (24 hrs)

| Molecule | CYCS promoter activity (luciferase) [1] | binding of Nrf1 to the CC promoter ([2]; agent alone) | binding of Nrf1 to the CC promoter ([2]; combined with DOC (24 hrs)) | levels of p-Drp1^S616 [3] | translocation of Nrf1 to nucleus ([4]; agent alone) | translocation of Nrf1 to nucleus ([4]; combined with DOC (24 hrs)) | PARP cleavage ([5]; agent alone) | CC expression [5] | PARP cleavage [5, 6] |
| --- | --- | --- | --- | --- | --- | --- | --- | --- | --- |
| Cc1ccc(NCCCc2ccccc2)c(N)c1 [NF-κB inhibitor, JSH-23] | increased the CYCS promoter activity | enhanced binding of Nrf1 to the CC promoter | enhanced binding of Nrf1 to the CC promoter | increased the levels of p-Drp1^S616 | Enhanced translocation of Nrf1 to nucleus | Enhanced translocation of Nrf1 to nucleus | only a modest increase | Increased CC expression | PARP cleavage |
| CCc1ccc(/C=C2/SC(=S)NC2=O)cc1 [c-Myc inhibitor, 10058-F4] | increased the CYCS promoter activity | enhanced binding of Nrf1 to the CC promoter | enhanced binding of Nrf1 to the CC promoter | increased the levels of p-Drp1^S616 | Enhanced translocation of Nrf1 to nucleus | Enhanced translocation of Nrf1 to nucleus | only a modest increase | Increased CC expression | PARP cleavage |
| bisperoxovanadium 5-hydroxipyridine [AKT activator] | increased the CYCS promoter activity | enhanced binding of Nrf1 to the CC promoter | enhanced binding of Nrf1 to the CC promoter | increased the levels of p-Drp1^S616 | Enhanced translocation of Nrf1 to nucleus | Enhanced translocation of Nrf1 to nucleus | only a modest increase | Increased CC expression | PARP cleavage |
